This note sets out measurements from article PMC11091117, “A fluorescently-tagged tick kinin neuropeptide triggers peristalsis and labels tick midgut muscles” (Scientific Reports, 2024).

“Also recorded” adds a separate entry of the source.

Test [1] relates to tick kinin receptor (recombinant R. microplus receptor, CHO-K1 BMLK3 cells). Kind of test: Cellular end-point fluorescence calcium mobilization assay, BMLK3 cells. Format: cell-based, Rhipicephalus microplus. The source says: Three peptides were used in this study. These included: 1) the ligand for the endogenous tick kinin receptor from Rhipicephalus sanguineus, Rhisa-kinin 8 peptide of sequence GTGEDQAFSPWGamide (Rhisa-K-8; RK8; of identical sequence to Rhimi-K-8 in Rhipicephalus microplus)[48], 2) the same peptide but fluorescently labeled at the N-terminus with tetramethylrhodamine (TMR) a red fluorescent dye, designated TMR-Rhisa-K-8 (TMR-RK8), and 3) a labeled peptide synthesized with the scrambled sequence of the kinin ligand, designated TMR-Scrambled. The sequence of TMR-RK8 was TMR-C-GTGEDQAFSPWGamide). The TMR-Scrambled kinin (TMR-C-GTQWGPGFEADSamide) served as a negative control for tissue labeling. All peptides were custom-synthesized and purchased from GenScript (Piscataway, NJ, USA) with a purity of ≥ 95% and the cysteine in bold in both sequences was added to attach the label. Experiments were replicated with independently synthesized batches (4 mg each) of labeled and unlabeled peptides, for reproducibility. Unlabeled RK8 was used as a competitive ligand to verify target-specific binding of the labeled TMR-RK8 (see Ligand Competition Assay). For cell assays, the peptide stock solutions (100 µM) were made in 1% dimethyl sulfoxide (DMSO) in Hank’s balanced salt solution (HBSS, Thermo Fisher, Waltham, USA). For fluorescent cell labeling, peptide working solutions (10 µM) were prepared in HBSS from stock solutions. For assays on the midgut, peptides were solubilized and diluted in a tick physiological saline consisting of 140 mM NaCl, 5 mM KCl, 1 mM MgCl2, 5 mM CaCl2, 4 mM NaHCO3, and 5 mM HEPES, pH 7.2[49].
The tick kinin receptor is stably expressed in the recombinant CHO-K1 cell line designated BMLK3 (Boophilus microplus leucokinin receptor 3) that was constructed and selected as described by Holmes, et al.[47]. The CHO-K1 cells had been obtained from the American Type Culture Collection (ATCC) for transfection with the expression construct. This cell line has been kept in the laboratory since 2003. Cells that were transfected only with an empty plasmid are referred to as “vector-only” (V/O) cells and were used as a negative control. Before all experiments, the BMLK3 cell line or V/O cells were separately cultured in T-75 flasks with selective medium (F-12 K medium containing 10% FBS and 800 μgmL^−1 of G418 sulfate) for one to two passages in a humidified incubator at 37 °C and 5% CO2.
A fluorescence-based intracellular calcium mobilization end-point assay described by Xiong, et al.[50] was used to confirm the activity of the TMR-labeled RK8 peptide on a cell line expressing the tick kinin receptor. For this, BMLK3 and V/O cells were cultured in F-12 K medium (1% FBS and 400 μgmL^−1- of G418 Sulfate). The cells were seeded in a 96-well plate with 20,000 cells per well and incubated overnight at 37 °C and 5% CO2. The next morning, cells were prepared for the assay following the manufacturer’s instructions for the Fluo-8 Calcium Flux Assay Kit – NoWash (Abcam, Cambridge, United Kingdom). The F-12 K medium in the plate was removed by inverting the plate and gently blotting on paper towels. […] The calcium fluorescence signal was detected by a CLARIOstar (BMG LABTECH, Chicago, IL, United States) plate reader set to read at the fluorescence plate-mode with excitation and emission wavelengths of 490 and 525 nm at 29 °C. Calcium responses were read immediately after the addition of 10 µL of either TMR-RK8, unlabeled RK8, or blank solvent (1% DMSO in HBSS). […]
In general terms: A change in cytosolic calcium serves as a functional read-out for many receptors and channels.

The test system of test [2] is vector-only (V/O) CHO-K1 cells. Kind of test: Fluorescence microscopy validation of labeled peptide specificity on live vector-only cells. Format: binding. The settings on record: 1 µM TMR-RK8, 5 min at room temperature, HBSS; Zeiss Axio Observer, BPTmX channel. As to the method:
BMLK3 and vector-only cells were cultured in selective media (F-12K medium containing 10% fetal bovine serum and 800 µg/mL-1 of G418 sulfate), cells were seeded in […] (CELLSTAR®, Greiner Bio-One®, Monroe, NC USA) at 20,000 cells per well and were incubated overnight. The next assay, the cell culture medium was removed, and cells were rinsed twice with 200 µl DPBS, and 180 µl of HBSS buffer was added into each well. The peptide stock solutions were prepared in 1% DMSO in HBSS at 100 µM. TMR-RK8 (20 µl) was added into each well and incubated with the cells for 5 min at room temperature. The medium was then removed with a pipette and the cells were rinsed twice with 200 µl HBSS, and DAPI (VECTASHIELD® H-1200, Vector Laboratories) was added (20 µl of 0.15 µg/ml) for visualizing the cell nuclei. Cells were rinsed twice with 200 µl of HBSS, and finally 180 µl HBSS per well was added.
The cells were immediately imaged under a Zeiss Axio Observer® inverted fluorescence microscope. The exposure time for the Bodipy-Tetramethylrhodamine-X (BPTmX) fluorescence channel was the same for BMLK3 cells and V/O cells. DAPI imaging was done subsequently using the same focal height as the BPTmx channel.

TMR-C-GTGEDQAFSPWGamide [TMR-RK8]: the “intracellular calcium fluorescence response / receptor activation (in words)” value in test [1] (10 nM to 10 μM (four concentrations), 1% DMSO in HBSS, Fluo-8, Ex 490/Em 525 nm, 29 °C, read 60 s at 1 s intervals, average raw fluorescence units of 4 technical replicates, simple linear regression) was “activated and labeled the recombinant R. microplus receptor expressed in CHO-K1 cells; also recorded: elicited a dose-dependent intracellular calcium fluorescence response; also recorded: functionally activates the tick recombinant kinin receptor in BMLK3 cells; also recorded: activated the receptor in a dose response fashion, similarly to the unlabeled RK8 peptide”. Besides, the “fluorescence units at highest concentration, TMR-RK8 compared with RK8 (in words)” value in test [1] (highest concentration assayed 10 µM, Fluo-8, 4 technical replicates) was “maximal and similar for the highest concentration assayed of 10 µM”. Moreover, in test [1] (overlap of confidence intervals of cell responses to TMR-RK8 and RK8), the “effect of TMR label on peptide bioactivity (in words)” value is “the TMR fluorescent label did not impair peptide bioactivity”. In test [2], the “labeling of vector-only cells, Fig. S1 (in words)” value is listed as “only observed in the BLMK3 cells”.
